Patent publication US20200147169A1, “COMPOSITION COMPRISING A HIGH CONCENTRATION OF ITURIN LIPOPEPTIDES” (LIPOFABRIK, priority 2017, published 2020)

Experiment: Solubility of iturinic lipopeptide (mycosubtilin) alone or in compositions with surfactants; supernatant after centrifugation analysed by RP-HPLC
Type: physicochemical
Procedure: An iturinic lipopeptide (here mycosubtilin), having a purity (on dry matter) of between 45% and 80%, was solubilized alone in water at different concentrations and this control composition was compared to different compositions to which different surfactant compounds were added as described in the application. After 15 days of storage at 21° C., only compositions with a rheological behaviour of the fluid type and a homogeneous appearance (without flow preventing caking and/or phase shift and/or precipitation) are selected, mixed by stirring, then these compositions are centrifuged for 10 minutes at 10,000 g and the supernatant is analysed using the RP-HPLC reference method. This method makes it possible to check the solubility of the iturinic compounds that are then found in the supernatant after centrifugation.
The solubility of iturinic lipopeptide (here mycosubtilin) alone in an aqueous solution as a function of its concentration is shown in FIG. 1. No surfactant is added to composition 1 which contains only iturinic lipopeptides.
The measurement is made on the supernatant after a centrifugation step to eliminate insoluble substances.

## mycosubtilin
Alkylthoxyglycoside (AEG 0.4%, composition 8 of FIG. 2), 15 days at room temperature
  solubility of mycosubtilin: above 30 g/L
Combination of surfactin and fengycin (composition 10 of FIG. 2), compared with fengycin or surfactin alone
  iturinic compound solubility: even higher
Mycosubtilin alone in aqueous solution, between 5 and 25 g/L (FIG. 1)
  appearance / solubility beyond the maximum concentration: a precipitate that settles can be observed and only a small part remains soluble
Mycosubtilin alone in aqueous solution, room temperature, no surfactant (FIG. 1)
  maximum concentration at which mycosubtilin solubilizes: 2 g/L
non-ionic Simulsol and anionic Protéol, 10% each (composition 3 of FIG. 2), 15 days at room temperature
  maximum solubility of mycosubtilin: 15.3 g/L
non-ionic compound Emulsogen (0.2%) (composition 6 of FIG. 2), 15 days at room temperature
  maximum solubility of mycosubtilin: 11.6 g/L
Penthylene glycol (50%, composition 7 of FIG. 2), 15 days at room temperature
  solubility of mycosubtilin: above 30 g/L
Presence of fengycin (10%, composition 2 of FIG. 2), 15 days at room temperature, supernatant after centrifugation
  solubility of mycosubtilin: ~30 g/L
Presence of surfactin (4%, composition 9 of FIG. 2), 15 days at room temperature, supernatant after centrifugation
  solubility of mycosubtilin: ~30 g/L
Soy lecithin (4%) coupled with Xanthan gum (0.1%) (composition 4 of FIG. 2), 15 days at room temperature
  maximum solubility of mycosubtilin: 1.5 g/L
Surfactin (4%) and non-ionic surfactant Emulsogen (0.2%) (composition 13 of FIG. 2), 15 days at room temperature
  maximum solubility of the iturinic compound: 112 g/L
